Experimental data from US10864197B2, “Biphenyl sulfonamide compounds for the treatment of kidney diseases or disorders” (Retrophin, Inc., priority 2016, dated 2020).

Test: DUET trial: treatment emergent adverse events and edema severity
Format: in vivo, human
Settings: for Patients with Edema, Severity Grade 0 / Patients with Edema, Severity Grade 1+ to 2+ / Patients with Edema, Severity Grade 3+ to 4+ / Percent of patients having treatment emergent adverse effects: Any / Percent of patients having treatment emergent adverse effects: Drug-related / Percent of patients having treatment emergent adverse effects: Leading to dose change or interruption / Percent of patients having treatment emergent adverse effects: Leading to drug discontinuation / Percent of patients having treatment emergent adverse effects: Leading to study withdrawal / Percent of patients having treatment emergent adverse effects: Serious / Percent of patients with Cough / Percent of patients with Diarrhea / Percent of patients with Dizziness / Percent of patients with Edema/edema peripheral / Percent of patients with Fatigue / Percent of patients with Headache / Percent of patients with Hypotension/orthostatic hypotension / Percent of patients with Muscle spasms / Percent of patients with Nasal congestion / Percent of patients with Nausea / Percent of patients with Upper abdominal pain / Percent of patients with Upper respiratory tract infection / Percent of patients with Vomiting: human, in vivo; for Percent of patients having treatment emergent adverse effects: Death: irbesartan n=36, sparsentan all doses n=73
Source text: DUET trial is a phase 2, double-blind, randomized, active-control, dose-escalation study (NCT01613118) that evaluates the efficacy and safety of sparsentan as a treatment for primary focal segmental glomerulosclerosis (FSGS), a rare disorder characterized by massive proteinuria and progressive loss of kidney function. Patients (ranging in age from 8 years to 75 years) with biopsy-proven primary FSGS (or documentation of a genetic mutation in a podocyte protein associated with the disease) having baseline urine protein to creatinine (“UP/C”) ratios greater than 1 g/g and estimated glomerular filtration rates greater than 30 ml/min were eligible for the study. The inclusion criteria also included a mean seated blood pressure >[…] and <145/96 mmHg for patients aged 18 years or older, or, for patients aged <18 years of age, a mean seated blood pressure of >90/60 mmHg and <95th percentile for age, gender, and height. The inclusion criteria included an allowance for a stable dose of immunosuppressive medication for ≥1 month. Exclusion criteria included secondary FSGS; significant medical conditions related to cardiac, hepatic, or immune function; body mass index >[…] for adults or in the 99th percentile plus 5 for pediatric patients; hematocrit <27% or hemoglobin <[…]; serum potassium >5.5 mEq/L; and women who were pregnant, breastfeeding, or of child-bearing potential who were unwilling to use two methods of contraception.
Patients who signed consent and met all inclusion and exclusion criteria during the screening phase underwent a 2-week angiotensin receptor blocker (ARB) and angiotensin converting enzyme (ACE) inhibitor washout period before being randomly assigned to one of the three escalating dose cohorts receiving sparsentan (200 mg/day; 400 mg/day; and 800 mg/day) or a fixed maximal dose of active control (the ARB irbesartan, at 300 mg/day) in a 3:1 ratio within each cohort. The primary endpoint was the change in UP/C ratio (determined as a measure of urinary protein excretion) from baseline. The proportion of patients achieving UP/C ratio ≤1.5 g/g with >40% reduction in UP/C ratio at Week 8, a modified responder analysis, was evaluated as secondary endpoint.
The incidences of specific treatment emergent adverse events for which the incidence was greater than 5% across all patients are shown in Table 7. Symptoms such as headache, dizziness, and edema may be associated with hypotension and some of those symptoms were more frequent in patients treated with sparsentan relative to those patients treated with irbesartan. However, there was no significant different between irbesartan-treated patients and sparsentan-treated patients in the worsening of existing edema (Table 8).

SMILES | Patients with Edema, Severity Grade 0 [%] | Patients with Edema, Severity Grade 1+ to 2+ [%] | Patients with Edema, Severity Grade 3+ to 4+ [%] | Patients with Edema, Severity Grade 0 (8 weeks) [%] | Patients with Edema, Severity Grade 1+ to 2+ (8 weeks) [%] | Patients with Edema, Severity Grade 3+ to 4+ (8 weeks) [%] | Percent of patients having treatment emergent adverse effects: Any (8 weeks) [%] | Percent of patients having treatment emergent adverse effects: Drug-related (8 weeks) [%] | Percent of patients having treatment emergent adverse effects: Leading to dose change or interruption (8 weeks) [%] | Percent of patients having treatment emergent adverse effects: Leading to drug discontinuation (8 weeks) [%] | Percent of patients having treatment emergent adverse effects: Leading to study withdrawal (8 weeks) [%] | Percent of patients having treatment emergent adverse effects: Serious (8 weeks) [%] | Percent of patients with Cough (8 weeks) [%] | Percent of patients with Diarrhea (8 weeks) [%] | Percent of patients with Dizziness (8 weeks) [%] | Percent of patients with Edema/edema peripheral (8 weeks) [%] | Percent of patients with Fatigue (8 weeks) [%] | Percent of patients with Headache (8 weeks) [%] | Percent of patients with Hypotension/orthostatic hypotension (8 weeks) [%] | Percent of patients with Muscle spasms (8 weeks) [%] | also measured
CCCCC1=NC2(CCCC2)C(=O)N1Cc1ccc(-c2ccccc2-c2nnn[nH]2)cc1 [Irbesartan, irbesartan, reference compound] | 76 | 21 | 3 | 86 | 14 | 0 | 72.2 | 36.1 | 8.3 | 2.8 | 2.8 | 2.8 | 5.6 | 2.8 | 11.1 | 2.8 | 11.1 | 19.4 | 8.3 | 5.6 | Percent of patients with Nasal congestion (8 weeks): 11.1%; Percent of patients with Nausea (8 weeks): 8.3%; Percent of patients with Upper abdominal pain (8 weeks): 5.6%; Percent of patients with Upper respiratory tract infection (8 weeks): 5.6%; Percent of patients with Vomiting (8 weeks): 2.8%; Percent of patients having treatment emergent adverse effects: Death: 0%
CCCCC1=NC2(CCCC2)C(=O)N1Cc1ccc(-c2ccccc2S(=O)(=O)Nc2noc(C)c2C)c(COCC)c1 [Sparsentan, 4′-((2-butyl-4-oxo-1,3-diazaspiro[4.4]non-1-en-3-yl)methyl)-N-(4,5-dimethylisoxazol-3-yl)-2′-(ethoxymethyl)-[1,1′-biphenyl]-2-sulfonamide] | 66 | 32 | 2 | 65 | 30 | 5 | 76.7 | 43.8 | 23.3 | 4.1 | 2.7 | 2.7 | 4.1 | 8.2 | 13.7 | 12.3 | 4.1 | 19.2 | 16.4 | 0 | Percent of patients with Nasal congestion (8 weeks): 2.7%; Percent of patients with Nausea (8 weeks): 12.3%; Percent of patients with Upper abdominal pain (8 weeks): 5.5%; Percent of patients with Upper respiratory tract infection (8 weeks): 2.7%; Percent of patients with Vomiting (8 weeks): 8.2%; Percent of patients having treatment emergent adverse effects: Death: 0%
